# In publication PMC9062151, “GVS-12 attenuates non-alcoholic steatohepatitis by suppressing inflammatory responses via PPARγ/STAT3 signaling pathways” (RSC Advances, 2019):
# pKi: −log10 of the molar value.
# Biological target: T1, PPARγ (peroxisome proliferator-activated receptor γ) (Homo sapiens, UniProt P37231)
# T1 construct: gene PPARG; PPARγ-LBD
# T1 sequence (P37231 235-505 limits assumed): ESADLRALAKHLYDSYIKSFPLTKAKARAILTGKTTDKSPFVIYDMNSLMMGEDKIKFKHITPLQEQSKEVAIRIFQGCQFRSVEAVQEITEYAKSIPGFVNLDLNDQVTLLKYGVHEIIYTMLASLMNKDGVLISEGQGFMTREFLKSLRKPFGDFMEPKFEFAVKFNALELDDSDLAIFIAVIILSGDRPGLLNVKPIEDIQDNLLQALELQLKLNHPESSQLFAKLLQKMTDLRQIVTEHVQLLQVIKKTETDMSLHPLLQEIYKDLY
# Experiment: LanthaScreen TR-FRET PPARγ competitive binding assay; supported by PPARγ reporter gene activation in HepG2 cells
smiles,measurement,value
O=C(NCc1ccco1)c1ccc(OCc2ccc(C(F)(F)F)cc2)cc1 [GVS-12],pKi,6.49
